Experimental data from paper PMC5038266 (Antimicrobial Agents and Chemotherapy, 2016).
Entries after “also recorded” stand apart in the source; their conditions may differ. Where two headings read alike, the source gives them in different places.

Assays:
[1] = Study 2: multiple-dose drug-drug interaction pharmacokinetics, delamanid with tenofovir or Kaletra (lopinavir/ritonavir); conditions: for Equivalence outcome for steady-state exposure of coadministered drug: coadministered with delamanid
[2] = Study 1: multiple-dose drug-drug interaction pharmacokinetics, delamanid with ethambutol plus Rifater; conditions: for AUC / Cmax: human, plasma, po, ethambutol 1100 mg + Rifater once daily, mean ± SD; for AUC: AUCτ of coadministered drug; for Cmax: Cmax of coadministered drug
[3] = Study 1; multiple once-daily oral doses of 200 mg delamanid alone and in combination with ethambutol and rifampin/isoniazid/pyrazinamide
[4] = in vivo
MDR-TB = conditions: cited from earlier work
clinical [5] = conditions: human, in vivo, po; for AUC: Delamanid AUCτ
[6] = human, in vivo
[7] = Study 3 safety assessments (adverse events); type: in vivo, human (healthy subjects); conditions: efavirenz alone, delamanid alone, and delamanid plus efavirenz
[8] = Study 3: multiple-dose drug-drug interaction pharmacokinetics, delamanid with efavirenz; conditions: for AUC / Cmax: human, po; for AUC: Delamanid AUCτ
[9] = Study 2 safety assessments (adverse events); type: in vivo, human (healthy subjects); conditions: combinations of delamanid with either tenofovir or lopinavir and ritonavir
CYP enzymes = system: CYP enzymes; set-up: method as in PMID 17132069; conditions: cited from earlier work
clinical [10] = conditions: human, in vivo, po; for Tmax: Delamanid Tmax
[11] = delamanid plus optimized background regimen for ≤2 months
[12] = ethambutol-Rifater plus delamanid versus ethambutol-Rifater alone
[13] = with DLM, day 15, with delamanid 200 mg once daily
[14] = without DLM, day 15, without delamanid
[15] = Cmax of coadministered drug, with DLM

With `C[C@]1(COc2ccc(N3CCC(Oc4ccc(OC(F)(F)F)cc4)CC3)cc2)CN=C(N)O1` [DM-6705] the “Higher exposure on coadministration of lopinavir/ritonavir (Kaletra) with delamanid” value ([1]; delamanid and metabolites, unpublished results for metabolites) was “approximately 25%” and the “Lower metabolite AUCτ when delamanid coadministered with ethambutol-Rifater” value ([2]; based on the AUC, versus delamanid alone) was 30 to 50%.
In the case of `C[C@]1(COc2ccc(N3CCC(Oc4ccc(OC(F)(F)F)cc4)CC3)cc2)Cn2cc([N+](=O)[O-])nc2O1` [Delamanid], the Tolerability [3] is reported as “well tolerated”, the “Delamanid concentrations reached steady-state by day” value ([4]; human) is reported as ≤ 14 days and the “Delamanid AUCτ” value ([4]; human, po, 100 mg) is reported as 5,830 ± 1,660 ng·h/ml. The “Delamanid Cmax” value ([4]; human, po, 100 mg) was 734 ± 196 ng/mL, the “Effect of tenofovir coadministration on delamanid PK/systemic exposure” value [4] was “did not affect” and the “Equivalence outcome for steady-state exposure of delamanid” value [4] was “documented”. The “Improvement of 2-month sputum culture conversion” value (MDR-TB; MDR-TB patients, delamanid + optimized background regimen for 2 months compared to placebo + optimized background regimen) was “approximately 50%”, the Favorable treatment outcomes (MDR-TB; [11]) was 55% and the Mortality (MDR-TB; [11]) was 12.0%. For the same compound, the Favorable treatment outcomes (MDR-TB; delamanid plus optimized background regimen for ≥6 months, P < 0.001) was 74.5%, the Mortality (MDR-TB; delamanid plus optimized background regimen for ≥6 months, P = 0.001) was 2.9% and the “Equivalence outcome for delamanid exposure” value ([1]; after lopinavir/ritonavir coadministration) was “Equivalence was suggested”. For the same compound, the Tmax (clinical [5]; 100 mg) was 4 h, the AUC (clinical [5]; 100 mg) was 4510 ng·h/mL and the AUC (clinical [5]; 100 mg, Study 2, DLM alone, delamanid 100 mg twice daily, day 14, plasma, mean ± SD) was 4700 ng·h/mL. For the same compound, the Cmax (clinical [5]; 100 mg, Delamanid Cmax) was 518 ± 114 ng/mL, the Cmax (clinical [5]; 100 mg, Delamanid Cmax, Study 2, DLM alone, delamanid 100 mg twice daily, day 14, plasma, mean ± SD) was 617 ± 135 ng/mL and the “Delamanid concentrations reached steady state by day” value [6] was ≤ 15 days. For the same compound, the “Lower delamanid AUCτ on coadministration with ethambutol plus Rifater” value [6] was 47%, the “Lower delamanid Cmax on coadministration with ethambutol plus Rifater” value [6] was 42% and the Tolerability [7] was “well tolerated”. The “Effect of efavirenz coadministration on delamanid steady-state exposure/PK” value [8] was “did not significantly affect”, the “Delamanid Tmax” value ([8]; DLM alone, delamanid 100 mg twice daily, day 7 evening dose, median (min-max)) was 4.00 (2.00–6.00) h and the AUC ([8]; in vivo, 100 mg, DLM + EFV (efavirenz 600 mg once daily for 10 days), delamanid 100 mg twice daily, day 17 evening dose, mean ± SD) was 4240 ng·h/mL. For the same compound, the AUC ([8]; in vivo, 100 mg, DLM alone, delamanid 100 mg twice daily, day 7 evening dose, mean ± SD) was 4380 ng·h/mL, the Cmax ([8]; in vivo, 100 mg, Delamanid Cmax, DLM + EFV (efavirenz 600 mg once daily for 10 days), delamanid 100 mg twice daily, day 17 evening dose) was 394 ng/mL and the Cmax ([8]; in vivo, 100 mg, Delamanid Cmax, DLM alone, delamanid 100 mg twice daily, day 7 evening dose) was 391 ng/mL. The “Effect of CYP2C9 genotype on delamanid PK” value ([2]; unpublished results) was “no effect”, the Tolerability [9] was “well tolerated” and the “Effects on CYP activities” value (CYP enzymes; in vitro) was “neither stimulatory nor inhibitory effects”. The “Metabolism by CYP enzymes” value (CYP enzymes; incubation of delamanid with liver microsomes, metabolites minimally quantifiable) was “not metabolized by CYP enzymes”, the AUC (clinical [10]; 200 mg, Delamanid AUCτ) was 3110 ng·h/mL and the AUC (clinical [10]; 200 mg, Delamanid AUCτ, Study 1, DLM + PLC, delamanid 200 mg once daily, day 15, plasma, mean ± SD) was 5950 ng·h/mL. The Cmax (clinical [10]; 200 mg, Delamanid Cmax) was 270 ± 38.9 ng/mL, the Cmax (clinical [10]; 200 mg, Delamanid Cmax, Study 1, DLM + PLC, delamanid 200 mg once daily, day 15, plasma, mean ± SD) was 476 ± 119 ng/mL and the Tmax (clinical [10]; 200 mg) was 4.06 h. It also gave a Tmax (clinical [10]; 200 mg, Study 1, DLM + PLC, delamanid 200 mg once daily, day 15, plasma, median (min-max)) of 4 h.
With `O=C1Nc2ccc(Cl)cc2[C@@](C#CC2CC2)(C(F)(F)F)O1` [Efavirenz] the Tolerability [7] was “well tolerated”, the “Effect of delamanid on efavirenz plasma concentrations/exposure” value [8] was “not affected; also recorded: did not affect” and the “AUCτ of coadministered drug, without DLM” value ([8]; efavirenz 600 mg once daily in the evening for 10 days, without delamanid, mean ± SD) was 84.7 ± 37.8 (14) h·µg/ml. For the same compound, the Cmax ([8]; plasma, 600 mg, Cmax of coadministered drug, with DLM, efavirenz 600 mg once daily in the evening for 10 days, with delamanid 100 mg twice daily, mean ± SD) was 5810 ± 3030 ng/mL and the Cmax ([8]; plasma, 600 mg, Cmax of coadministered drug, without DLM, efavirenz 600 mg once daily in the evening for 10 days, without delamanid, mean ± SD) was 5950 ± 1670 ng/mL.
For `CC[C@@H](CO)NCCN[C@@H](CC)CO` [Ethambutol], the “Higher AUCτ with delamanid coadministration” value [2, 12] was “approximately 25%”, the “Higher Cmax with delamanid coadministration” value [2, 12] was “approximately 25%” and the AUC [2, 13] was 22400 ± 4770 ng·h/mL. For the same compound, the AUC [2, 14] was 18200 ± 3210 ng·h/mL and the Cmax [2, 13] was 4450 ± 820 ng/mL.
For `NNC(=O)c1ccncc1` [Isoniazid], the “Isoniazid concentrations in slow acetylators versus intermediate/rapid acetylators (NAT2 genotype)” value [2] was ~2 fold, the AUC [2, 13] was 12100 ± 6900 ng·h/mL and the Cmax [2, 13] was 4620 ± 980 ng/mL. For the same compound, the AUC (clinical [10]; AUCτ of coadministered drug, without DLM, Study 1, ethambutol 1100 mg + Rifater once daily, day 15, without delamanid, mean ± SD) was 20000 ± 8000 ng·h/mL.
For `Cc1cccc(C)c1OCC(=O)N[C@@H](Cc1ccccc1)[C@@H](O)C[C@H](Cc1ccccc1)NC(=O)[C@H](C(C)C)N1CCCNC1=O` [Lopinavir], the “Effect of delamanid on exposure of coadministered drug” value (“Effect … of coadministered drug” for short) [1] was “not affected”, the “Equivalence outcome for steady-state exposure of coadministered drug” value (from here on “Equivalence outcome … of coadministered drug”) [1] was “equivalence was documented” and the “Cmax of coadministered drug, without DLM” value ([1]; tenofovir 300 mg once daily or lopinavir 400 mg/ritonavir 100 mg twice daily, day 14, without delamanid, mean ± SD) was 12.9 ± 3.17 (11) μg/ml.
With `NC(=O)c1cnccn1` [Pyrazinamide] the AUC [2, 13] was 533000 ± 141000 ng·h/mL, the AUC [2, 14] was 488000 ± 90300 ng·h/mL and the Cmax [2, 13] was 51400 ± 9060 ng/mL. The Cmax (clinical [10]; Cmax of coadministered drug, without DLM) was 49700 ng/mL.
Compound `CO[C@H]1/C=C/O[C@@]2(C)Oc3c(C)c(O)c4c(O)c(c(/C=N/N5CCN(C)CC5)c(O)c4c3C2=O)NC(=O)/C(C)=C\C=C\[C@H](C)[C@H](O)[C@@H](C)[C@@H](O)[C@@H](C)[C@H](OC(C)=O)[C@@H]1C` [Rifampin] has an AUC (clinical [10]; AUCτ of coadministered drug, with DLM) of 55900 ng·h/mL, an AUC (clinical [10]; AUCτ of coadministered drug, without DLM) of 48200 ng·h/mL and a Cmax (clinical [10]; [15]) of 13200 ng/mL.
With `CC(C)c1nc(CN(C)C(=O)N[C@H](C(=O)N[C@@H](Cc2ccccc2)C[C@H](O)[C@H](Cc2ccccc2)NC(=O)OCc2cncs2)C(C)C)cs1` [Ritonavir] the “Effect … of coadministered drug” value [1] was “not affected”, the “Equivalence outcome … of coadministered drug” value [1] was “suggested” and the Cmax (clinical [5]; [15]) was 1270 ng/mL.
With `C[C@H](Cn1cnc2c(N)ncnc21)OCP(=O)(O)O` [Tenofovir] the “Effect … of coadministered drug” value [1] was “not affected”, the “Equivalence outcome … of coadministered drug” value [1] was “suggested” and the “AUCτ of coadministered drug, with DLM” value ([1]; tenofovir 300 mg once daily or lopinavir 400 mg/ritonavir 100 mg twice daily, day 14, with delamanid 100 mg twice daily, mean ± SD) was 2.850 ± 0.644 (13) h·µg/ml. The Cmax (clinical [5]; [15]) was 294 ng/mL.
